Test results as given in ChEMBL document CHEMBL4330083, “Synthesis and evaluation of isoprenylation-resveratrol dimer derivatives against Alzheimer's disease” (Eur J Med Chem, 2019).

Key:
Format in all cases: functional
[1] = test system: PC-12; experiment: Neuroprotection against H2O2-induced oxidative damage in rat PC12 cells assessed as necrotic cells at 2.5 uM after 24 hrs in presence of H2O2 by annexin V-FITC/propidium iodide staining based flow cytometric analysis (reference value: 4.5%)
[2] = test system: PC-12; experiment: (§1) Neuroprotection against H2O2-induced oxidative damage in rat PC12 cells assessed as reduction in ROS production by measuring mean fluorescence intensity at 10 uM preincubated for 4 hrs followed by H2O2 addition measured after 24 hrs by DCFH-DA staining-based flow cytometric analysis (reference value: 82616)
[3] = test system: PC-12; experiment: Neuroprotection against H2O2-induced oxidative damage in rat PC12 cells assessed as necrotic cells at 10 uM after 24 hrs in presence of H2O2 by annexin V-FITC/propidium iodide staining based flow cytometric analysis (reference value: 4.5%)
[4] = test system: PC-12; experiment: as §1, with “2.5” for “10”
[5] = test system: PC-12; experiment: Neuroprotection against H2O2-induced oxidative damage in rat PC12 cells assessed as mitochondrial membrane potential at 10 uM after 24 hrs in presence of H2O2 by Jc-1 staining based flow cytometric analysis (reference value: 16.35 +/- 3.19%)
[6] = test system: PC-12; experiment: Neuroprotection against H2O2-induced oxidative damage in rat PC12 cells assessed as early apoptotic cells at 2.5 uM after 24 hrs in presence of H2O2 by annexin V-FITC/propidium iodide staining based flow cytometric analysis (reference value: 2.1%)
[7] = test system: PC-12; experiment: Neuroprotection against H2O2-induced oxidative damage in rat PC12 cells assessed as early apoptotic cells at 5 uM after 24 hrs in presence of H2O2 by annexin V-FITC/propidium iodide staining based flow cytometric analysis (reference value: 2.1%)
[8] = Neuroprotection against LPS-induced inflammation in […] cells assessed as reduction in ROS production by measuring mean fluorescence intensity at 2.5 uM after 18 hrs by DCFH-DA staining-based flow cytometric analysis (reference value: 70385)
[9] = test system: PC-12; experiment: Neuroprotection against H2O2-induced oxidative damage in rat PC12 cells assessed as mitochondrial membrane potential at 5 uM after 24 hrs in presence of H2O2 by Jc-1 staining based flow cytometric analysis (reference value: 16.35 +/- 3.19%)
[10] = test system: PC-12; experiment: Neuroprotection against H2O2-induced oxidative damage in rat PC12 cells assessed as intracellular Ca2+ level by measuring mean fluorescence intensity at 2.5 uM after 24 hrs in presence of H2O2 by Fluo-3/AM staining based flow cytometric analysis (reference value: 43156)
[11] = test system: PC-12; experiment: Neuroprotection against H2O2-induced oxidative damage in rat PC12 cells assessed as viable cells at 5 uM after 24 hrs in presence of H2O2 by annexin V-FITC/propidium iodide staining based flow cytometric analysis (reference value: 63.6%); conditions: PC-12, 24 h, read-out: Activity
[12] = Neuroprotection against H2O2-induced inflammation in […] cells assessed as reduction in ROS production by measuring mean fluorescence intensity at 2.5 uM after 18 hrs by DCFH-DA staining-based flow cytometric analysis (reference value: 11273)
[13] = test system: PC-12; experiment: Neuroprotection against H2O2-induced oxidative damage in rat PC12 cells assessed as intracellular Ca2+ level by measuring mean fluorescence intensity at 5 uM after 24 hrs in presence of H2O2 by Fluo-3/AM staining based flow cytometric analysis (reference value: 43156)
[14] = Neuroprotection against H2O2-induced inflammation in […] cells assessed as reduction in ROS production by measuring mean fluorescence intensity at 5 uM after 18 hrs by DCFH-DA staining-based flow cytometric analysis (reference value: 20004)
[15] = Neuroprotection against LPS-induced inflammation in […] cells assessed as reduction in ROS production by measuring mean fluorescence intensity at 5 uM after 18 hrs by DCFH-DA staining-based flow cytometric analysis (reference value: 56792)
[16] = Neuroprotection against H2O2-induced inflammation in […] cells assessed as reduction in ROS production by measuring mean fluorescence intensity at 10 uM after 18 hrs by DCFH-DA staining-based flow cytometric analysis (reference value: 20004)
[17] = test system: PC-12; experiment: as §1, with “102489)” for “82616)”
[18] = test system: PC-12; experiment: Neuroprotection against H2O2-induced oxidative damage in rat PC12 cells assessed as viable cells at 10 uM after 24 hrs in presence of H2O2 by annexin V-FITC/propidium iodide staining based flow cytometric analysis (reference value: 64.1%); conditions: PC-12, 24 h, read-out: Activity
[19] = test system: PC-12; experiment: Neuroprotection against H2O2-induced oxidative damage in rat PC12 cells assessed as early apoptotic cells at 10 uM after 24 hrs in presence of H2O2 by annexin V-FITC/propidium iodide staining based flow cytometric analysis (reference value: 29.3%)
[20] = Neuroprotection against LPS-induced inflammation in human BV2 cells assessed as reduction in ROS production by measuring mean fluorescence intensity at 2.5 uM after 18 hrs by DCFH-DA staining-based flow cytometric analysis (reference value: 56792)
[21] = test system: PC-12; experiment: as §1, with “5” for “10”, “102489)” for “82616)”
[22] = Neuroprotection against H2O2-induced inflammation in human BV2 cells assessed as reduction in ROS production by measuring mean fluorescence intensity at 2.5 uM after 18 hrs by DCFH-DA staining-based flow cytometric analysis (reference value: 20004)
[23] = test system: PC-12; experiment: Neuroprotection against H2O2-induced oxidative damage in rat PC12 cells assessed as intracellular Ca2+ level by measuring mean fluorescence intensity at 10 uM after 24 hrs in presence of H2O2 by Fluo-3/AM staining based flow cytometric analysis (reference value: 51697)
[24] = test system: PC-12; experiment: Neuroprotection against H2O2-induced oxidative damage in rat PC12 cells assessed as viable cells at 5 uM after 24 hrs in presence of H2O2 by annexin V-FITC/propidium iodide staining based flow cytometric analysis (reference value: 64.1%); conditions: PC-12, 24 h, read-out: Activity
[25] = test system: PC-12; experiment: Neuroprotection against H2O2-induced oxidative damage in rat PC12 cells assessed as necrotic cells at 2.5 uM after 24 hrs in presence of H2O2 by annexin V-FITC/propidium iodide staining based flow cytometric analysis (reference value: 0.4%)
[26] = test system: PC-12; experiment: Neuroprotection against H2O2-induced oxidative damage in rat PC12 cells assessed as late apoptotic cells at 5 uM after 24 hrs in presence of H2O2 by annexin V-FITC/propidium iodide staining based flow cytometric analysis (reference value: 6.2%)
[27] = test system: PC-12; experiment: Neuroprotection against H2O2-induced oxidative damage in rat PC12 cells assessed as necrotic cells at 5 uM after 24 hrs in presence of H2O2 by annexin V-FITC/propidium iodide staining based flow cytometric analysis (reference value: 0.4%)
[28] = test system: PC-12; experiment: Neuroprotection against H2O2-induced oxidative damage in rat PC12 cells assessed as late apoptotic cells at 10 uM after 24 hrs in presence of H2O2 by annexin V-FITC/propidium iodide staining based flow cytometric analysis (reference value: 6.2%)

Structure (SMILES): CC(C)=CCc1c(O)cc(/C=C/c2ccc3c(c2)[C@H](c2cc(O)c4c(c2)OC(C)(C)CC4)[C@@H](c2ccc(O)cc2)O3)cc1O
- Activity [1]: 4.8%
- Flu intensity [2]: 56274
- Activity [3]: 0.6%
- Flu intensity [4]: 61043
- Activity [5]: 83.23%
- Activity [6]: 2.1%
- Activity [7]: 1.9%
- Flu intensity [8]: 55345
- Activity [9]: 68.51%
- Flu intensity [10]: 40869
- viability at 5 µM [11]: 84%
- Flu intensity [12]: 11086
- Flu intensity [13]: 37986

Structure (SMILES): CC(C)=CCc1c(O)cc(/C=C/c2ccc3c(c2)[C@H](c2cc(O)c(CC=C(C)C)c(O)c2)[C@@H](c2ccc(O)cc2)O3)cc1O
- Flu intensity [14]: 11602
- Flu intensity [15]: 28450
- Flu intensity [16]: 8220
- Flu intensity [17]: 25470
- viability at 10 µM [18]: 88.4%
- Activity [19]: 10.3%
- Flu intensity [20]: 31340
- Flu intensity [21]: 85417
- Flu intensity [22]: 14563
- Flu intensity [23]: 25664
- viability at 5 µM [24]: 82.2%
- Activity [25]: 0.4%
- Activity [26]: 4%
- Activity [27]: 0.7%
- Activity [28]: 0.7%
